Experimental data reported in US12281095B2, “Pesticidally active diazine-amide compounds” (SYNGENTA CROP PROTECTION AG, priority 2019, dated 2025).

Assays:
Type in all cases: in vivo
[1] = tested on: Euschistus heros (Neotropical Brown Stink Bug); experiment: Example B2: Euschistus heros (Neotropical Brown Stink Bug), sprayed soybean leaves; settings: 120 h, application rate of 200 ppm, N2 nymphs, 5 days after infestation, read-out: control in at least one of the two categories (mortality or growth inhibition)
Protocol: Example B2: Euschistus heros (Neotropical Brown Stink Bug)
Soybean leaves on agar in 24-well microtiter plates were sprayed with aqueous test solutions prepared from 10′000 ppm DMSO stock solutions. After drying the leaves were infested with N2 nymphs. The samples were assessed for mortality and growth inhibition in comparison to untreated samples 5 days after infestation.

[2] = tested on: Spodoptera littoralis (Egyptian Cotton Leaf Worm); experiment: Example B9: Spodoptera littoralis (Egyptian Cotton Leaf Worm), sprayed cotton leaf discs; settings: foliar, 72 h, application rate of 200 ppm, L1 larvae, 3 days after infestation, read-out: control in at least one of the three categories (mortality, anti-feedant or growth inhibition)
[3] = tested on: Diabrotica balteata (Corn Root Worm); experiment: Example B1: Diabrotica balteata (Corn Root Worm), sprayed maize sprouts; settings: 96 h, application rate of 200 ppm, L2 larvae, 4 days after infestation, read-out: control in at least one of the two categories (mortality or growth inhibition)
Protocol: Example B1: Diabrotica balteata (Corn Root Worm)
Maize sprouts placed onto an agar layer in 24-well microtiter plates were treated with aqueous test solutions prepared from 10′000 ppm DMSO stock solutions by spraying. After drying, the plates were infested with L2 larvae (6 to 10 per well). The samples were assessed for mortality and growth inhibition in comparison to untreated samples 4 days after infestation.

[4] = tested on: Myzus persicae (Green Peach Aphid); experiment: Example B8: Myzus persicae (Green Peach Aphid): Intrinsic Activity; settings: 120 h, test rate of 12 ppm, sucrose solution, 5 days after infestation
Description: Example B8: Myzus persicae (Green Peach Aphid): Intrinsic Activity
Test compounds prepared from 10′000 ppm DMSO stock solutions were applied by pipette into 24-well microtiter plates and mixed with sucrose solution. The plates were closed with a stretched Parafilm. A plastic stencil with 24 holes was placed onto the plate and infested pea seedlings were placed directly on the Parafilm. The infested plate was closed with a gel blotting paper and another plastic stencil and then turned upside down. The samples were assessed for mortality 5 days after infestation.

[5] = tested on: Chilo suppressalis (Striped Rice Stemborer); experiment: Example B4: Chilo suppressalis (Striped Rice Stemborer), artificial diet; settings: 144 h, application rate of 200 ppm, L2 larvae, 6 days after infestation, read-out: control in at least one of the three categories (mortality, anti-feedant or growth inhibition)
Protocol: Example B4: Chilo suppressalis (Striped Rice Stemborer)
24-well microtiter plates with artificial diet were treated with aqueous test solutions prepared from 10′000 ppm DMSO stock solutions by pipetting. After drying, the plates were infested with L2 larvae (6-8 per well). The samples were assessed for mortality, anti-feeding effect, and growth inhibition in comparison to untreated samples 6 days after infestation. Control of Chilo suppressalis by a test sample is given when at least one of the categories mortality, anti-feedant effect, and growth inhibition is higher than the untreated sample.

[6] = tested on: Plutella xylostella (Diamond Back Moth); experiment: Example B5: Plutella xylostella (Diamond Back Moth), artificial diet, 24-well; settings: 192 h, application rate of 200 ppm, eggs, 8 days after infestation, read-out: control in at least one of the two categories (mortality or growth inhibition)
Protocol: Example B5: Plutella xylostella (Diamond Back Moth)
24-well microtiter plates with artificial diet were treated with aqueous test solutions prepared from 10′000 ppm DMSO stock solutions by pipetting. After drying, Plutella eggs were pipetted through a plastic stencil onto a gel blotting paper and the plate was closed with it. The samples were assessed for mortality and growth inhibition in comparison to untreated samples 8 days after infestation.

[7] = tested on: Plutella xylostella (Diamondback Moth); experiment: Example B13: Plutella xylostella (Diamondback Moth), artificial diet, 96-well; settings: 216 h, application rate of 500 ppm, eggs/L1 larvae, 9 days after infestation
Protocol: Example B13: Plutella xylostella (Diamondback Moth)
96-well microtiter plates containing artificial diet were treated with aqueous test solutions, prepared from 10′000 ppm DMSO stock solutions, by a liquid handling robot. After drying, eggs (˜30 per well) were infested onto a netted lid which was suspended above the diet. The eggs hatch and L1 larvae move down to the diet. The samples were assessed for mortality 9 days after infestation.

[8] = tested on: Myzus persicae (Green Peach Aphid); experiment: Example B12: Myzus persicae (Green Peach Aphid), 96-well sucrose solution; settings: 120 h, application rate of 50 ppm, 5 days after infestation
Description: Example B12: Myzus persicae (Green Peach Aphid)
Test compounds prepared from 10′000 ppm DMSO stock solutions were applied by a liquid handling robot into 96-well microtiter plates and mixed with a sucrose solution. Parafilm was stretched over the 96-well microtiter plate and a plastic stencil with 96 holes was placed onto the plate. Aphids were sieved into the wells directly onto the Parafilm. The infested plates were closed with a gel blotting card and a second plastic stencil and then turned upside down. The samples were assessed for mortality 5 days after infestation.

[9] = tested on: Spodoptera littoralis (Egyptian Cotton Leaf Worm); experiment: Example B10: Spodoptera littoralis (Egyptian Cotton Leaf Worm), uptake by lettuce roots from agar; settings: 144 h, test rate of 12.5 ppm, compound absorbed by lettuce roots, eggs, 6 days after infestation, read-out: control in at least one of the three categories (mortality, anti-feeding, or growth inhibition)
Description: Example B10: Spodoptera littoralis (Egyptian Cotton Leaf Worm)
Test compounds were applied by pipette from 10′000 ppm DMSO stock solutions into 24-well plates and mixed with agar. Lettuce seeds were placed onto the agar and the multi well plate was closed by another plate which contained also agar. After 7 days the compound was absorbed by the roots and the lettuce grew into the lid plate. The lettuce leaves were then cut off into the lid plate. Spodoptera eggs were pipetted through a plastic stencil onto a humid gel blotting paper and the lid plate was closed with it. The samples were assessed for mortality, anti-feedant effect and growth inhibition in comparison to untreated samples 6 days after infestation.

[10] = tested on: Frankliniella occidentalis (Western Flower Thrips); experiment: Example B3: Frankliniella occidentalis (Western Flower Thrips): Feeding/Contact Activity; settings: 168 h, application rate of 200 ppm, population of mixed ages, 7 days after infestation
Protocol: Example B3: Frankliniella occidentalis (Western Flower Thrips): Feeding/Contact Activity
Sunflower leaf discs were placed on agar in 24-well microtiter plates and sprayed with aqueous test solutions prepared from […] stock solutions. After drying the leaf discs were infested with a Frankliniella population of mixed ages. The samples were assessed for mortality 7 days after infestation.

CC(NC(=O)c1cc(C(F)(F)F)cc(C2(C#N)CC2)c1)c1nccnc1-c1ncc(OCC(F)(F)F)cn1 (stereo not shown) [P2, 3-(1-cyanocyclopropyl)-N-[1-[3-[5-(2,2,2-trifluoroethoxy)pyrimidin-2-yl]pyrazin-2-yl]ethyl]-5-(trifluoromethyl)benzamide]
≥ 80%: percent control (mortality or growth inhibition) at 200 ppm [1] | percent control (mortality, anti-feedant effect or growth inhibition) at 200 ppm [2] | percent control (mortality or growth inhibition) at 200 ppm [3] | mortality at 12 ppm [4] | percent control (mortality, anti-feedant effect or growth inhibition) at 200 ppm [5] | percent control (mortality or growth inhibition) at 200 ppm [6]

CC(NC(=O)c1cc(C(F)(F)F)cc(C(C)(C)C#N)c1)c1nccnc1-c1ccc(C#N)cn1 (stereo not shown) [P9, 3-(1-cyano-1-methyl-ethyl)-N-[1-[3-(5-cyano-2-pyridyl)pyrazin-2-yl]ethyl]-5-(trifluoromethyl)benzamide]
≥ 80%: percent control (mortality, anti-feedant effect or growth inhibition) at 200 ppm [2] | percent control (mortality or growth inhibition) at 200 ppm [3] | mortality at 12 ppm [4] | percent control (mortality, anti-feedant effect or growth inhibition) at 200 ppm [5] | percent control (mortality or growth inhibition) at 200 ppm [6]

CC(NC(=O)c1cc(C(F)(F)F)cc(C2(C#N)CC2)c1)c1nccnc1-c1ccc(C#N)cn1 (stereo not shown) [P25, 3-(1-cyanocyclopropyl)-N-[1-[3-(5-cyano-2-pyridyl)pyrazin-2-yl]eth-yl]-5-(trifluoromethyl)benzamide]
≥ 80%: percent control (mortality, anti-feedant effect or growth inhibition) at 200 ppm [2] | percent control (mortality or growth inhibition) at 200 ppm [3] | mortality at 500 ppm [7] | percent control (mortality, anti-feedant effect or growth inhibition) at 200 ppm [5] | percent control (mortality or growth inhibition) at 200 ppm [6] | mortality at 50 ppm [8]

CC(NC(=O)c1cc(C(F)(F)F)cc(C2(C#N)CC2)c1)c1nccnc1-c1ncc(OC(F)F)cn1 (stereo not shown) [P32, 3-(1-cyanocyclopropyl)-N-[1-[3-[5-(difluoromethoxy)pyrimidin-2-yl]pyrazin-2-yl]ethyl]-5-(trifluoromethyl)benzamide]
≥ 80%: percent control (mortality or growth inhibition) at 200 ppm [1] | percent control (mortality, anti-feedant effect or growth inhibition) at 200 ppm [2] | percent control (mortality or growth inhibition) at 200 ppm [3] | mortality at 500 ppm [7] | percent control (mortality, anti-feeding or growth inhibition) at 12.5 ppm [9] | mortality at 12 ppm [4] | percent control (mortality, anti-feedant effect or growth inhibition) at 200 ppm [5] | percent control (mortality or growth inhibition) at 200 ppm [6] | mortality at 50 ppm [8]

CC(NC(=O)c1cc(C(F)(F)F)nc(C2(C#N)CC2)c1)c1nccnc1-c1ncc(OCC(F)(F)F)cn1 (stereo not shown) [P34, 2-(1-cyanocyclopropyl)-N-[1-[3-[5-(2,2,2-trifluoroethoxy)pyrimidin-2-yl]pyrazin-2-yl]ethyl]-6-(trifluoromethyl)pyridine-4-carboxamide]
≥ 80%: percent control (mortality or growth inhibition) at 200 ppm [1] | percent control (mortality, anti-feedant effect or growth inhibition) at 200 ppm [2] | percent control (mortality or growth inhibition) at 200 ppm [3] | mortality at 500 ppm [7] | percent control (mortality, anti-feeding or growth inhibition) at 12.5 ppm [9] | mortality at 12 ppm [4] | percent control (mortality, anti-feedant effect or growth inhibition) at 200 ppm [5] | percent control (mortality or growth inhibition) at 200 ppm [6] | mortality at 50 ppm [8]

CC(NC(=O)c1cc(C(F)(F)F)nc(C2(C#N)CC2)c1)c1nccnc1-c1ncc(OC(F)F)cn1 (stereo not shown) [P36, 2-(1-cyanocyclopropyl)-N-[1-[3-[5-(difluoromethoxy)pyrimidin-2-yl]pyrazin-2-yl]ethyl]-6-(trifluoromethyl)pyridine-4-carboxamide]
≥ 80%: percent control (mortality or growth inhibition) at 200 ppm [1] | percent control (mortality, anti-feedant effect or growth inhibition) at 200 ppm [2] | percent control (mortality or growth inhibition) at 200 ppm [3] | mortality at 500 ppm [7] | percent control (mortality, anti-feeding or growth inhibition) at 12.5 ppm [9] | percent control (mortality, anti-feedant effect or growth inhibition) at 200 ppm [5] | percent control (mortality or growth inhibition) at 200 ppm [6] | mortality at 50 ppm [8]

CC(NC(=O)c1cc(C2CC2)cc(C(F)(F)F)c1)c1nccnc1-c1ncc(OCC(F)F)cn1 (stereo not shown) [P37, 3-cyclopropyl-N-[1-[3-[5-(2,2-difluoroethoxy)pyrimidin-2-yl]pyrazin-2-yl]ethyl]-5-(trifluoromethyl)benzamide]
≥ 80%: percent control (mortality, anti-feedant effect or growth inhibition) at 200 ppm [2] | percent control (mortality or growth inhibition) at 200 ppm [3] | mortality at 500 ppm [7] | mortality at 12 ppm [4] | percent control (mortality, anti-feedant effect or growth inhibition) at 200 ppm [5] | percent control (mortality or growth inhibition) at 200 ppm [6]

CC(NC(=O)c1cc(C(F)(F)F)nc(C2(C#N)CC2)c1)c1nccnc1-c1ncc(OCC(F)F)cn1 (stereo not shown) [P40, 2-(1-cyanocyclopropyl)-N-[1-[3-[5-(2,2-difluoroethoxy)pyrimidin-2-yl]pyrazin-2-yl]ethyl]-6-(trifluoromethyl)pyridine-4-carboxamide]
≥ 80%: percent control (mortality or growth inhibition) at 200 ppm [1] | percent control (mortality, anti-feedant effect or growth inhibition) at 200 ppm [2] | percent control (mortality or growth inhibition) at 200 ppm [3] | mortality at 500 ppm [7] | percent control (mortality, anti-feeding or growth inhibition) at 12.5 ppm [9] | mortality at 12 ppm [4] | percent control (mortality, anti-feedant effect or growth inhibition) at 200 ppm [5] | percent control (mortality or growth inhibition) at 200 ppm [6] | mortality at 50 ppm [8]

CC(NC(=O)c1cc(OC(F)F)cc(C2(C#N)CC2)c1)c1nccnc1-c1ccc(C#N)cn1 (stereo not shown) [P44, 3-(1-cyanocyclopropyl)-N-[1-[3-(5-cyano-2-pyridyl)pyrazin-2-yl]ethyl]-5-(difluorometh-oxy)benzamide]
≥ 80%: percent control (mortality, anti-feedant effect or growth inhibition) at 200 ppm [2] | percent control (mortality or growth inhibition) at 200 ppm [3] | mortality at 200 ppm [10] | mortality at 12 ppm [4] | percent control (mortality, anti-feedant effect or growth inhibition) at 200 ppm [5] | percent control (mortality or growth inhibition) at 200 ppm [6]

CC(NC(=O)c1cc(C(F)(F)F)cc(C(C)(C)C#N)c1)c1nccnc1-c1ncc(OCC(F)(F)F)cn1 (stereo not shown) [P47, 3-(1-cyano-1-methyl-ethyl)-N-[1-[3-[5-(2,2,2-trifluoroethoxy)pyrimidin-2-yl]pyrazin-2-yl]ethyl]-5-(trifluoromethyl)benzamide]
≥ 80%: percent control (mortality or growth inhibition) at 200 ppm [1] | percent control (mortality, anti-feedant effect or growth inhibition) at 200 ppm [2] | percent control (mortality or growth inhibition) at 200 ppm [3] | mortality at 12 ppm [4] | percent control (mortality, anti-feedant effect or growth inhibition) at 200 ppm [5] | percent control (mortality or growth inhibition) at 200 ppm [6]
